# According to PubChem BioAssay (NCI):
#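 Assay format: 96-well plates, 48-hour exposure. TGI: total growth inhibition.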
# What was measured:
# Assay in all cases: inhibition of tumour cell growth, NCI panel, 48 h
# [1] = test system: 786-0 renal
# [2] = test system: UO-31 renal
# [3] = test system: CCRF-CEM leukemia
# [4] = test system: NCI-H23 lung
# [5] = test system: HOP-18 NSCLC
# [6] = test system: XF 498 CNS
# [7] = test system: RPMI-8226 leukemia
# [8] = test system: SN12C renal
# [9] = test system: HT29 colon
# [10] = test system: TK-10 renal
# [11] = test system: DMS 114 small cell lung
# [12] = test system: COLO 205 colon
# [13] = test system: A498 renal
# [14] = test system: ACHN renal
# [15] = test system: SK-MEL-2 melanoma
# [16] = test system: HCT-15 colon
# [17] = test system: M14 melanoma
# [18] = test system: SK-OV-3 ovarian
# [19] = test system: HCT-116 colon
# [20] = test system: SNB-75 CNS
# [21] = test system: NCI-H460 lung
# [22] = test system: EKVX NSCLC
# [23] = test system: OVCAR-4 ovarian
# [24] = test system: A549 NSCLC
# [25] = test system: DMS 273 small cell lung
# [26] = test system: OVCAR-3 ovarian
# [27] = test system: UACC-62 melanoma
# [28] = test system: RXF-631 renal
# [29] = test system: K-562 leukemia
# [30] = test system: KM12 colon
# [31] = test system: SF-539 CNS
# [32] = test system: CAKI-1 renal
# [33] = test system: HL-60(TB) leukemia
# [34] = test system: OVCAR-5 ovarian
# [35] = test system: KM20L2 colon
# [36] = test system: SK-MEL-5 melanoma
# [37] = test system: MOLT-4 leukemia
# [38] = test system: LXFL 529 NSCLC
# [39] = test system: M19-MEL melanoma
# [40] = test system: HOP-92 NSCLC
# [41] = test system: IGROV1 ovarian
# [42] = test system: SF-268 CNS
# [43] = test system: U251 CNS
# [44] = test system: OVCAR-8 ovarian
# [45] = test system: SW-620 colon
# [46] = test system: SNB-19 CNS
# [47] = test system: SF-295 CNS
# [48] = test system: SNB-78 CNS
# [49] = test system: LOX IMVI melanoma
# [50] = test system: HCC-2998 colon
# [51] = test system: HOP-62 NSCLC
# [52] = test system: DLD-1 colon
# [53] = test system: SR leukemia
# [54] = test system: RXF 393 renal
# [55] = test system: SK-MEL-28 melanoma
# [56] = test system: NCI-H226 lung
# [57] = test system: MALME-3M melanoma
# [58] = test system: UACC-257 melanoma
# [59] = test system: NCI-H522 lung
compound,measurement,setting,value
C[C@]12CC[C@H](OC(=O)Nc3ccccc3)CC1=CC[C@@H]1C2CC[C@]2(C)/C(=N/OC(=O)Nc3ccccc3)CCC12 (stereo partly drawn),TGI,[1],> 100 µM
same,TGI,[2],7.91 µM
same,TGI,[3],> 100 µM
same,TGI,[4],> 100 µM
same,TGI,[5],37.9 µM
same,TGI,[6],3.19 µM
same,TGI,[7],> 100 µM
same,TGI,[8],3.32 µM
same,TGI,[9],> 100 µM
same,TGI,[10],> 100 µM
same,TGI,[11],> 100 µM
same,TGI,[12],> 100 µM
same,TGI,[13],> 100 µM
same,TGI,[14],> 100 µM
same,TGI,[15],> 100 µM
same,TGI,[16],3.31 µM
same,TGI,[17],> 100 µM
same,TGI,[18],> 100 µM
same,TGI,[19],> 100 µM
same,TGI,[20],> 100 µM
same,TGI,[21],> 100 µM
same,TGI,[22],> 100 µM
same,TGI,[23],> 100 µM
same,TGI,[24],> 100 µM
same,TGI,[25],> 100 µM
same,TGI,[26],> 100 µM
same,TGI,[27],> 100 µM
same,TGI,[28],> 100 µM
same,TGI,[29],> 100 µM
same,TGI,[30],> 100 µM
same,TGI,[31],> 100 µM
same,TGI,[32],4.96 µM
same,TGI,[33],> 100 µM
same,TGI,[34],> 100 µM
same,TGI,[35],> 100 µM
same,TGI,[36],> 100 µM
same,TGI,[37],> 100 µM
same,TGI,[38],2.52 µM
same,TGI,[39],> 100 µM
same,TGI,[40],72.1 µM
same,TGI,[41],> 100 µM
same,TGI,[42],> 100 µM
same,TGI,[43],> 100 µM
same,TGI,[44],> 100 µM
same,TGI,[45],> 100 µM
same,TGI,[46],> 100 µM
same,TGI,[47],> 100 µM
same,TGI,[48],> 100 µM
same,TGI,[49],> 100 µM
same,TGI,[50],> 100 µM
O=C(Nc1ccccc1)N1C(c2ccccc2)=N[C@@H](c2ccccc2)[C@@H]1c1ccccc1,TGI,[51],47.9 µM
same,TGI,[1],34.7 µM
same,TGI,[2],30.6 µM
same,TGI,[3],60 µM
same,TGI,[4],55.4 µM
same,TGI,[52],35.6 µM
same,TGI,[5],50.7 µM
same,TGI,[7],61.3 µM
same,TGI,[8],47.2 µM
same,TGI,[9],31.6 µM
same,TGI,[10],76.1 µM
same,TGI,[11],29.9 µM
same,TGI,[12],28.8 µM
same,TGI,[13],35.8 µM
same,TGI,[14],31.4 µM
same,TGI,[53],40.4 µM
same,TGI,[16],60.4 µM
same,TGI,[17],28.2 µM
same,TGI,[19],36.3 µM
same,TGI,[20],53.5 µM
same,TGI,[21],> 100 µM
same,TGI,[22],> 100 µM
same,TGI,[23],44.6 µM
same,TGI,[24],52 µM
same,TGI,[26],62.8 µM
same,TGI,[27],34.7 µM
same,TGI,[28],79 µM
same,TGI,[29],50.9 µM
same,TGI,[30],34 µM
same,TGI,[31],33.7 µM
same,TGI,[54],34.2 µM
same,TGI,[32],48.7 µM
same,TGI,[33],46.5 µM
same,TGI,[34],45.1 µM
same,TGI,[35],37.3 µM
same,TGI,[36],26.8 µM
same,TGI,[55],30.6 µM
same,TGI,[37],44.5 µM
same,TGI,[38],31.6 µM
same,TGI,[56],46.4 µM
same,TGI,[57],34.7 µM
same,TGI,[39],38.7 µM
same,TGI,[40],53.3 µM
same,TGI,[41],53.4 µM
same,TGI,[42],49.2 µM
same,TGI,[44],45.6 µM
same,TGI,[45],35.2 µM
same,TGI,[46],97.9 µM
same,TGI,[47],62.7 µM
same,TGI,[48],> 100 µM
same,TGI,[49],28.2 µM
same,TGI,[58],35.3 µM
same,TGI,[50],35.2 µM
COc1ccccc1/C=C(\NC(=O)c1ccccc1)c1nc2ccccc2[nH]1,TGI,[1],> 100 µM
same,TGI,[2],> 100 µM
same,TGI,[3],> 100 µM
same,TGI,[4],> 100 µM
same,TGI,[52],> 100 µM
same,TGI,[5],> 100 µM
same,TGI,[6],> 100 µM
same,TGI,[7],51.7 µM
same,TGI,[8],> 100 µM
same,TGI,[9],> 100 µM
same,TGI,[10],> 100 µM
same,TGI,[11],> 100 µM
same,TGI,[12],80.3 µM
same,TGI,[13],> 100 µM
same,TGI,[14],> 100 µM
same,TGI,[15],> 100 µM
same,TGI,[16],> 100 µM
same,TGI,[17],> 100 µM
same,TGI,[18],> 100 µM
same,TGI,[19],> 100 µM
same,TGI,[20],> 100 µM
same,TGI,[21],> 100 µM
same,TGI,[22],> 100 µM
same,TGI,[23],> 100 µM
same,TGI,[24],> 100 µM
same,TGI,[26],> 100 µM
same,TGI,[27],> 100 µM
same,TGI,[28],> 100 µM
same,TGI,[29],> 100 µM
same,TGI,[30],> 100 µM
same,TGI,[31],> 100 µM
same,TGI,[54],> 100 µM
same,TGI,[32],> 100 µM
same,TGI,[34],> 100 µM
same,TGI,[35],> 100 µM
same,TGI,[36],48 µM
same,TGI,[55],> 100 µM
same,TGI,[37],> 100 µM
same,TGI,[38],96.9 µM
same,TGI,[59],> 100 µM
same,TGI,[57],> 100 µM
same,TGI,[39],> 100 µM
same,TGI,[40],72.5 µM
same,TGI,[41],> 100 µM
same,TGI,[42],> 100 µM
same,TGI,[43],> 100 µM
same,TGI,[44],> 100 µM
same,TGI,[45],> 100 µM
same,TGI,[46],> 100 µM
same,TGI,[48],> 100 µM
same,TGI,[49],> 100 µM
same,TGI,[58],> 100 µM
CCNC1CC(n2cc(C)c(=O)[nH]c2=O)OC1CO (stereo not drawn),TGI,[51],> 100 µM
same,TGI,[1],> 100 µM
same,TGI,[2],> 100 µM
same,TGI,[3],> 100 µM
same,TGI,[4],> 100 µM
same,TGI,[52],> 100 µM
same,TGI,[6],> 100 µM
same,TGI,[7],> 100 µM
same,TGI,[8],> 100 µM
same,TGI,[11],> 100 µM
same,TGI,[12],> 100 µM
same,TGI,[13],> 100 µM
same,TGI,[53],> 100 µM
same,TGI,[15],> 100 µM
same,TGI,[17],> 100 µM
same,TGI,[18],> 100 µM
same,TGI,[19],> 100 µM
same,TGI,[20],> 100 µM
same,TGI,[21],> 100 µM
same,TGI,[23],> 100 µM
same,TGI,[25],> 100 µM
same,TGI,[27],> 100 µM
same,TGI,[29],> 100 µM
same,TGI,[31],> 100 µM
same,TGI,[32],> 100 µM
same,TGI,[33],> 100 µM
same,TGI,[55],> 100 µM
same,TGI,[37],> 100 µM
same,TGI,[38],> 100 µM
same,TGI,[59],> 100 µM
same,TGI,[56],> 100 µM
same,TGI,[57],> 100 µM
same,TGI,[39],> 100 µM
same,TGI,[40],> 100 µM
same,TGI,[41],> 100 µM
same,TGI,[42],> 100 µM
same,TGI,[48],> 100 µM
same,TGI,[50],> 100 µM
